The target in the assay is TET2 (Homo sapiens, UniProt Q6N021, DEL1481-1843).

The term Km denotes the substrate concentration at which the rate is half of its maximum.

On to `O=C(O)CCC(=O)C(=O)O` [compound 1, 2KG], for which the Km turned out to be 15.7 µM.

Source of the values: paper PMC5781229 (Analytical biochemistry, 2017).
